Data from patent publication US12599602B2, “Methods for treating cholestasis” (Mirum Pharmaceuticals, Inc., priority 2019, dated 2026).
Values joined by “and” are separate entries in the source; they are usually repeats but may differ in a detail not shown here. Equal values may be shown once. Read-outs that look alike come from different tables or passages of the source.

How the values were obtained:
[1] = test system: Children with Alagille Syndrome
Method: Children aged 1-18 years with a diagnosis of ALGS and evidence of cholestasis were eligible to enroll in the ICONIC clinical study, see Tables 12-14. During a long-term extension, participants with sBA levels above the upper limit of normal and/or an ITCHRO(OBS) score >1.5 were eligible for the 400 μg/kg BID dose (all participants received the 400 μg/kg BID dose). Inclusion criteria for the ICONIC study included having cholestasis, which was defined as at least one of 1) sBA concentration (total sBA) >3× the upper limit of normal, 2) serum conjugated bilirubin concentration >1 mg/dL, 3) fat-soluble vitamin deficiency not otherwise explained, 4) serum gamma-glutamyl transferase concentration >3× the upper limit of normal, and 3) intractable pruritus explainable only by liver disease. Inclusion criteria also included having significant pruritus, which was defined as an average daily score of >2 on the ITCHRO(OBS) scale for 2 consecutive weeks (0=no pruritus; 4=most severe pruritus). Exclusion criteria included having surgically disrupted enterohepatic circulation, a liver transplant, decompensated cirrhosis, or having any liver disease other than ALGS.
sBA responders were defined as those patients achieving ≥50% reduction from baseline in sBA at week 12 or 18. ITCHRO responders were defined as those patients achieving at least a 1-point reduction from Baseline in weekly morning ITCHRO(OBS) score at week 12 or 18.
In the open label extension, the effect of higher doses was explored by increasing dosage to a maximum of 400 μg/kg BID in eligible participants.
Efficacy assessments were based on changes from baseline in sBA concentration, weekly average ITCHRO(OBS) scores (0, none; 4, most severe), CSS score (0, none; 4 most severe), and Clinician Xanthoma Scale score (0, none; 4, disabling). […] During the long-term extension, efficacy assessments were conducted every 12 weeks. Serum total cholesterol and serum 7αC4 concentration were also monitored during the ICONIC clinical study, among other measures.
sBA were measured using a fully validated liquid chromatography-electrospray ionization-mass electrospray (LC-ESI-MS) method using stable-isotope dilution analysis to measure serum concentrations of principal bile acids (cholic, chenodeoxycholic, ursodeoxycholic, deoxycholic acid, lithocholic, and their corresponding glycine and taurine conjugates). Serum samples were analyzed in the Division of Pathology and Laboratory Medicine, Cincinnati Children's Hospital Medical Center according to SOP #PATH.CMS.1033. Calibration standards of individual bile acids were in the range of 50-25,000 ng/mL and Quality Control samples were prepared at concentrations of 100, 500, 1000, 2500, and 20000 ng/mL. The intra- and inter-assay imprecision of the method for individual bile acids measured was within the accepted GLP quality assurance guidelines of <15% coefficient of variance for these QC samples. The lower limit of quantification of the assay was set at 100 ng/mL and the imprecision at this concentration was <20%. The limit of detection of the assay was 5 ng/mL. Total sBA is represented by the sum of the individual bile acid species measured.

[2] = test system: Overweight and obese adults; assay: Phase 1 blinded, placebo-controlled, dose-ranging clinical study (NCT02475317), fecal bile acid excretion
Method: Participants consumed a low-fiber diet (<10 mg/day) for 2 days before randomization and during the 7-day treatment period. Measurements were taken of fBA, sBA concentration, and serum 7αC4 concentration (which is a biomarker of bile acid synthesis) prior to drug administration and at day 7.

[3] = test system: Participants with Primary Sclerosing Cholangitis (PSC); assay: CAMEO 14-week single-arm open-label phase 2a study of maralixibat in PSC; assay type: in vivo, human
Method: Participants were adults aged 18-80 years with a diagnosis of PSC. PSC diagnosis included a documented history of alkaline phosphatase (ALP) levels greater than 1.5 times above the upper limit of normal, biliary obstruction, and histological findings consistent with PSC diagnosis (if previously biopsied). The study enrolled 27 adults.
Efficacy was assessed by measuring at baseline and throughout the study sBA concentration, serum 7αC4 concentration (a marker of de novo bile acid synthesis), serum aoutotaxin concentration, LDL-C concentration, serum total cholesterol concentration, serum liver enzyme concentrations, and pruritus severity. Pruritus severity was determined by calculating Adult Itch Reported Outcome (ITCHRO) weekly sum scores and average daily scores (mean score over a 7-day period). Participants self-reported the ITCHRO daily on a scale 0-10 (0=no pruritus; 10=most severe pruritus).
Outcomes were assessed in the overall study population and in subgroups of participants (A) with any pruritus at baseline or (B) with an ITCHRO average daily score ≥4 out of 10 at baseline. Efficacy endpoints were based on change from baseline to week 14 or early termination (ET) and were analyzed using paired t-tests or Wilcoxon signed rank tests.

[4] = first 18 weeks of treatment, 400 μg/kg QD
[5] = one line per Subject ID (Table 18)
[6] = one line per Subject ID (Table 19)
[7] = sBA Normalization (<8.5 μmol/L)
[8] = participants with ITCHRO daily score ≥4 at baseline, one line per Participant A-F
[9] = participants with an ITCHRO daily score ≥4 at baseline

maralixibat
tolerability ([1]; doses up to 800 μg/kg/day, treatment duration up to 4 years): generally well tolerated
ITCHRO(OBS) scores, mean change from baseline [1, 4]: −1.7
sBA concentration, decrease [1, 4]: 31%
Serum Bile Acid, Change from Baseline to Week 48 [1, 5]: −166.3 μmol/L and −281.4 μmol/L and 166.4 μmol/L and −121.1 μmol/L and 4.3 μmol/L (2×) and −251.0 μmol/L and 3.3 μmol/L and −27.3 μmol/L and −155.5 μmol/L and −240.2 μmol/L and 9.0 μmol/L and 143.1 μmol/L and −112.2 μmol/L and 16.4 μmol/L and −10.9 μmol/L and −16.9 μmol/L and 54.5 μmol/L and −620.4 μmol/L and −23.9 μmol/L and −377.3 μmol/L and −205.9 μmol/L and −270.4 μmol/L and 25.5 μmol/L and −203.6 μmol/L and −96.4 μmol/L and −33.9 μmol/L and −56.4 μmol/L
Serum Bile Acid, Week 48 [1, 5]: 131.8 µmol/L and 98.5 µmol/L and 578.1 µmol/L and 20.8 µmol/L and 333.0 µmol/L and 119.6 µmol/L and 117.7 µmol/L and 492.6 µmol/L and 427.9 µmol/L and 199.8 µmol/L and 29.2 µmol/L and 891.6 µmol/L and 163.4 µmol/L and 60.2 µmol/L and 12.0 µmol/L and 23.6 µmol/L and 126.1 µmol/L and 37.0 µmol/L and 7.0 µmol/L and 101.9 µmol/L and 293.3 µmol/L and 65.0 µmol/L and 110.9 µmol/L and 35.8 µmol/L and 208.0 µmol/L and 55.8 µmol/L and 15.6 µmol/L and 22.9 µmol/L
ItchRO(Obs) Weekly Morning Average Score, Change from Baseline to Week 48 [1, 6]: −0.12 and 0.49 and −0.45 and 1.29 and −3.86 and 0.00 and −2.57 and −1.86 (2×) and −1.71 (2×) and −1.00 (2×) and −1.29 and −1.67 and −1.14 and −1.03 and −3.29 (2×) and −3.43 and −2.50 and −2.71 (2×) and −3.50 and −2.29 and −0.17 and −1.43 and −0.83
ItchRO(Obs) Weekly Morning Average Score, Week 48 [1, 6]: 2.71 and 3.20 and 1.83 and 3.71 and 0.14 and 1.86 and 0.71 and 1.14 (2×) and 0.29 (2×) and 2.00 (2×) and 1.71 (2×) and 1.00 and 1.40 and 0.00 (7×) and 1.43 and 1.57 and 3.50 and 2.17
Height Z-score, increase from baseline ([1]; participants in the ICONIC clinical study): 0.5
growth after dose increase ([1]; patients (N=15) given 400 μg/kg BID after 400 μg/kg QD for in excess of about 40 weeks): further increase in growth from baseline
ITCHRO(OBS), LS mean difference maralixibat vs placebo ([1]; randomized withdrawal): −1.5
sBA levels, least squares mean difference maralixibat vs placebo ([1]; randomized withdrawal (week 18-22)): −114.0
ItchRO(Obs) Weekly Morning Average Score, Average Change from Baseline [1, 7]: −3.50
ItchRO(Obs) Weekly Morning Average Score, Week 48 Average Score [1, 7]: 0.00
ItchRO(Obs) Weekly Morning Average Score, Average Change from Baseline ([1]; sBA ≥50% Reduction): −1.86
ItchRO(Obs) Weekly Morning Average Score, Week 48 Average Score ([1]; sBA ≥50% Reduction): 1.07
ItchRO(Obs) Weekly Morning Average Score, Average Change from Baseline ([1]; sBA ≥60% Reduction): −2.12
ItchRO(Obs) Weekly Morning Average Score, Week 48 Average Score ([1]; sBA ≥60% Reduction): 0.82
ItchRO(Obs) Weekly Morning Average Score, Average Change from Baseline ([1]; sBA ≥70% Reduction): −2.31
ItchRO(Obs) Weekly Morning Average Score, Week 48 Average Score ([1]; sBA ≥70% Reduction): 0.62
ItchRO(Obs) Weekly Morning Average Score, Average Change from Baseline ([1]; sBA ≥80% Reduction): −2.79
ItchRO(Obs) Weekly Morning Average Score, Week 48 Average Score ([1]; sBA ≥80% Reduction): 0.11
ItchRO(Obs) Weekly Morning Average Score, Average Change from Baseline ([1]; sBA ≥90% Reduction): −2.71
ItchRO(Obs) Weekly Morning Average Score, Week 48 Average Score ([1]; sBA ≥90% Reduction): 0.00
relation between reduction in sBA concentration and reduction of severity of pruritus (ITCHRO(OBS)) ([1]; week 48): positive correlation
sBA response, Week 48 (N = 28) n (%) ([1]; ≥50% Reduction): 13 (46.4%)
sBA response, Week 48 (N = 28) n (%) ([1]; ≥60% Reduction): 11 (39.3%)
sBA response, Week 48 (N = 28) n (%) ([1]; ≥70% Reduction): 8 (28.6%)
sBA response, Week 48 (N = 28) n (%) ([1]; ≥80% Reduction): 4 (14.3%)
sBA response, Week 48 (N = 28) n (%) ([1]; ≥90% Reduction): 1 (3.6%)
fBA excretion, mean change from baseline ([2]; 10 mg dose, 7 days): 515 µmol
fBA excretion, mean change from baseline ([2]; 20 mg dose, 7 days): 532 µmol
fBA excretion, mean change from baseline ([2]; 50 mg BID, 7 days): 1251 µmol
fBA excretion, mean change from baseline ([2]; 100 mg QD, 7 days): 1144 µmol
Mean sBA levels ([2]; 7 days): not elevated
fBA excretion ([2]; across doses): increased in a dose-dependent manner
treatment-emergent adverse events occurring in over 10% of participants ([2]; all doses): headache and diarrhea
treatment-emergent adverse events, severity ([2]; all doses): mild, and none were serious
Mean serum 7αC4 ([2]; baseline to day 7): increased
tolerability ([3]; adults with PSC, up to 10 mg/day): well tolerated
participants with worsening of pruritus by >1 point ([3]; baseline to week 14): No participants
7αC4, mean increase from baseline ([3]; overall): 11.1 ng/mL
Mean levels of 7αC4, increase from baseline ([3]; overall): 130%
sBA levels, decrease from baseline ([3]; overall): 38%
sBA levels, mean change from baseline ([3]; overall): -14.8 µmol/L
Mean conjugated bilirubin levels, increase ([3]; overall population): 0.19 mg/dL
serum LCL-C concentration, change ([3]; overall population): -16.3 mg/dL
serum autotaxin concentration, change ([3]; overall population): -148 ng/mL
total cholesterol, mean change ([3]; overall population): -21.2 mg/dL
ITCHRO weekly sum scores, decrease from baseline ([3]; overall, baseline to week 14/ET): 51%
Changes in serum total bilirubin, alanine aminotransferase, aspartate aminotransferase, and alkaline phosphatase concentrations ([3]; participants in the CAMEO clinical study): not statistically significant
conjugated bilirubin levels, change ([3]; participants with ITCHRO daily score ≥0 at baseline): no significant change
ItchRO average daily score (0-10 scale), Change from baseline to week 14/ET [3, 8]: −4.7 and −4.6 and −1.7 and −3.7 (2×) and −9.1
ItchRO average daily score (0-10 scale), Week 14/ET [3, 8]: 0 (2×) and 1.3 and 5.1 and 3.1 and 2.3
autotaxin levels ([3]; participants with an ITCHRO daily score >4 at baseline): significant reductions
ITCHRO weekly sum scores, decrease from baseline ([3]; participants with an ITCHRO daily score >4 out of 10 at baseline (n=6)): 70%
Mean levels of 7αC4, increase from baseline [3, 9]: 107%
sBA levels, decrease from baseline [3, 9]: 45%
total cholesterol, mean change [3, 9]: -32.0 mg/dL
participants in whom pruritus improved ([3]; participants with an ITCHRO score ≥4 at baseline): all 6
ITCHRO weekly sum scores, decrease from baseline ([3]; participants with any pruritus at baseline (n=18)): 53%
